From PubChem BioAssay (NCI)
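GI50: concentration for 50% inhibition of growth. TGI: concentration producing complete growth inhibition.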

How the values were obtained:
Experiment in all cases: NCI-60 cell line screen, 384-well format
786-0 renal = system: 786-0 renal
A498 renal = system: A498 renal
A549 NSCLC = system: A549 NSCLC
ACHN renal = system: ACHN renal
BT-549 breast = system: BT-549 breast
CAKI-1 renal = system: CAKI-1 renal
CCRF-CEM leukemia = system: CCRF-CEM leukemia
COLO 205 colon = system: COLO 205 colon
DU-145 prostate = system: DU-145 prostate
EKVX NSCLC = system: EKVX NSCLC
HCC-2998 colon = system: HCC-2998 colon
HCT-15 colon = system: HCT-15 colon
HL-60(TB) leukemia = system: HL-60(TB) leukemia
HOP-62 NSCLC = system: HOP-62 NSCLC
HOP-92 NSCLC = system: HOP-92 NSCLC
HS 578T breast = system: HS 578T breast
HT29 colon = system: HT29 colon
IGROV1 ovarian = system: IGROV1 ovarian
KM12 colon = system: KM12 colon
M14 melanoma = system: M14 melanoma
MALME-3M melanoma = system: MALME-3M melanoma
MCF7 breast = system: MCF7 breast
MDA-MB-231 breast = system: MDA-MB-231 breast
MDA-MB-435 melanoma = system: MDA-MB-435 melanoma
MDA-MB-468 breast = system: MDA-MB-468 breast
MOLT-4 leukemia = system: MOLT-4 leukemia
NCI-H226 lung = system: NCI-H226 lung
NCI-H23 lung = system: NCI-H23 lung

C=C1C(=O)OC(CCCCCCCC)C1C(=O)O (stereo unspecified)
GI50 (786-0 renal): 16.7 µM | TGI (786-0 renal): 31.6 µM | GI50 (A498 renal): 22.1 µM | TGI (A498 renal): 45.5 µM | GI50 (A549 NSCLC): 20.9 µM | TGI (A549 NSCLC): 41.8 µM | GI50 (ACHN renal): 21.4 µM | TGI (ACHN renal): 39.3 µM | GI50 (BT-549 breast): 14.8 µM | TGI (BT-549 breast): 38.3 µM | GI50 (CAKI-1 renal): 16.5 µM | TGI (CAKI-1 renal): 30.7 µM | GI50 (CCRF-CEM leukemia): 12.2 µM | TGI (CCRF-CEM leukemia): 24.8 µM | GI50 (COLO 205 colon): 25.5 µM | TGI (COLO 205 colon): 40.4 µM | GI50 (DU-145 prostate): 17.4 µM | TGI (DU-145 prostate): 31.5 µM | GI50 (EKVX NSCLC): 20.4 µM | TGI (EKVX NSCLC): 37.7 µM | GI50 (HCC-2998 colon): 20.6 µM | TGI (HCC-2998 colon): 35.2 µM | GI50 (HCT-15 colon): 19.4 µM | TGI (HCT-15 colon): 37.1 µM | GI50 (HL-60(TB) leukemia): 13.5 µM | TGI (HL-60(TB) leukemia): 26.4 µM | GI50 (HOP-62 NSCLC): 12.9 µM | TGI (HOP-62 NSCLC): 28.6 µM | GI50 (HOP-92 NSCLC): 19.8 µM | TGI (HOP-92 NSCLC): 41.1 µM | GI50 (HS 578T breast): 12.2 µM | TGI (HS 578T breast): 25.5 µM | GI50 (HT29 colon): 23.4 µM | TGI (HT29 colon): 49.4 µM | GI50 (IGROV1 ovarian): 19.2 µM | TGI (IGROV1 ovarian): 37.4 µM | GI50 (KM12 colon): 14.6 µM | TGI (KM12 colon): 28.2 µM | GI50 (M14 melanoma): 17.8 µM | TGI (M14 melanoma): 34.5 µM | GI50 (MALME-3M melanoma): 15.5 µM | TGI (MALME-3M melanoma): 29.2 µM | GI50 (MCF7 breast): 21.1 µM | TGI (MCF7 breast): 39.6 µM | GI50 (MDA-MB-231 breast): 30.3 µM | TGI (MDA-MB-231 breast): > 100 µM | GI50 (MDA-MB-435 melanoma): 23.3 µM | TGI (MDA-MB-435 melanoma): 44 µM | GI50 (MDA-MB-468 breast): 3.04 µM | TGI (MDA-MB-468 breast): 6.75 µM | GI50 (MOLT-4 leukemia): 14.6 µM | TGI (MOLT-4 leukemia): 27.9 µM | GI50 (NCI-H226 lung): 27.9 µM | TGI (NCI-H226 lung): 49.7 µM | GI50 (NCI-H23 lung): 14 µM | TGI (NCI-H23 lung): 27.6 µM
